15 compounds from patent publication US10118947B2, “Modulation of structured polypeptide specificity” (BICYCLE THERAPEUTICS LIMITED, priority 2013, dated 2018) can be followed below.

Each structure is given as a SMILES string. Numbered stars: 1 amine (or outer) side, 2 acyl side, 3 side chain; on linkers, the order of the positions; unused ones are H or OH. Bridge positions count the residues as written; N and C are the ends. Square brackets hold non-standard residues; d marks the D form. Peptide text beside a SMILES is read from it. Pro(trans-4-Ph) = O=C(O)[C@@H]1C[C@@H](c2ccccc2)CN1; Tpi = O=C(O)[C@@H]1Cc2c([nH]c3ccccc23)CN1; X2 = O=C([C@@H]1Cc2ccccc2N1[*:1])[*:2]; TBMB = c1c(C[*:1])cc(C[*:3])cc1C[*:2]; Hyp = O=C(O)[C@@H]1C[C@@H](O)CN1; Tic = O=C(O)[C@@H]1Cc2ccccc2CN1; Cha = N[C@@H](CC1CCCCC1)C(=O)O; Pen = CC(C)(S)[C@H](N)C(=O)O; Pip = O=C(O)[C@@H]1CCCCN1; Abu = CC[C@H](N)C(=O)O; Aib = CC(C)(N)C(=O)O; βAla = NCCC(=O)O

The first series is described as follows: Plasma stability profiling Method #1 (MALDI-TOF, 35% plasma), rat plasma. In kind it is in vitro ADME. Particulars: Table 12; method #1. How it is done: A rapid plasma stability profiling assay was developed that employed mass spectrometric detection (MALDI-TOF, Voyager DE, Applied Biosystems) of the parent mass, until the time when the parent peptide mass was no longer observable. Specifically, 200 uM of peptide was incubated in the presence of 35% rat or human plasma (Sera labs, using citrate as anticoagulant) at 37 deg C., which was supplemented with 1×PBS (derived from a 10×PBS Stock, Sigma). At various time points (i.e. t=0, 3, 24 hrs, henceafter daily up to 10 days), 2 uL of sample was added to 18 uL of 30 mM ammonium bicarbonate in a 1:1 mixture of acetonitrile:H2O. Samples were frozen at −80 deg C. until the time of analysis. For mass spectrometric analysis that determines the approximate detection window of the peptide, the acetonitrile:H2O-diluted sample of a given time point was spotted directly (0.7 uL) onto the MALDI plate. Matrix (alpha-cyanocinnamic acid, Sigma, prepared as a saturated solution in 1:1 acetonitrile:water containing 0.1% trifluoroacetic acid) was layered over the sample (1 uL). At a similar laser intensity setting on the MALDI TOF, the time could then be determined until parent peptide was no longer detectable. It should be noted that this is a qualitative assay serves to detect relative changes in plasma stability.
In the case of `CC(=O)N[C@H]1CSCc2cc3cc(c2)CSC[C@H](NC(=O)[C@H](CCCNC(=N)N)NC(=O)[C@H](C)NC(=O)[C@@H]2CCCN2C(=O)[C@H](CC2CCCCC2)NC(=O)[C@H](CO)NC1=O)C(=O)N[C@@H](CC(C)C)C(=O)N[C@@H](Cc1c[nH]cn1)C(=O)N[C@@H](CCC(N)=O)C(=O)N[C@@H](CC(=O)O)C(=O)N[C@@H](CC(C)C)C(=O)N[C@H](C(N)=O)CSC3` [Ac-(06-34-18) Cha2] (Ac-CS[Cha]PARCLHQDLC-NH2; linker 1-7-13 via TBMB), the “Observable in rat plasma, for days” value is listed as 2 days.

Take `CC(=O)N[C@H]1CSCc2cc3cc(c2)CSC[C@H](NC(=O)[C@H](CCCNC(=N)N)NC(=O)[C@H](C)NC(=O)[C@@H]2CCCN2C(=O)[C@@H]2Cc4c([nH]c5ccccc45)CN2C(=O)[C@H](CO)NC1=O)C(=O)N[C@@H](CC(C)C)C(=O)N[C@@H](Cc1c[nH]cn1)C(=O)N[C@@H](CCC(N)=O)C(=O)N[C@@H](CC(=O)O)C(=O)N[C@@H](CC(C)C)C(=O)N[C@H](C(N)=O)CSC3` [Ac-(06-34-18) NorHar2] (Ac-CS[Tpi]PARCLHQDLC-NH2; linker 1-7-13 via TBMB): the “Observable in rat plasma, for days” value worked out at 2 days.

Staying with this series, now noted: Table 13; method #1.
`CC(=O)N[C@H]1CSCc2cc3cc(c2)CSC[C@H](NC(=O)[C@H](CCCNC(=N)N)NC(=O)[C@H](C)NC(=O)[C@@H]2C[C@@H](c4ccccc4)CN2C(=O)[C@H](Cc2c[nH]c4ccccc24)NC(=O)[C@H](CO)NC1=O)C(=O)N[C@@H](CC(C)C)C(=O)N[C@@H](Cc1c[nH]cn1)C(=O)N[C@@H](CCC(N)=O)C(=O)N[C@@H](CC(=O)O)C(=O)N[C@@H](CC(C)C)C(=O)N[C@H](C(N)=O)CSC3` [Ac-(06-34-18) 4Phenyl Pro3] (Ac-CSW[Pro(trans-4-Ph)]ARCLHQDLC-NH2; linker 1-7-13 via TBMB): the “Observable in rat plasma, for days” value is listed as 2 days.

For `CC(=O)N[C@H]1CSCc2cc3cc(c2)CSC[C@H](NC(=O)[C@H](CCCNC(=N)N)NC(=O)[C@H](C)NC(=O)C(C)(C)NC(=O)[C@H](Cc2c[nH]c4ccccc24)NC(=O)[C@H](CO)NC1=O)C(=O)N[C@@H](CC(C)C)C(=O)N[C@@H](Cc1c[nH]cn1)C(=O)N[C@@H](CCC(N)=O)C(=O)N[C@@H](CC(=O)O)C(=O)N[C@@H](CC(C)C)C(=O)N[C@H](C(N)=O)CSC3` [Ac-(06-34-18) Aib3] (Ac-CSW[Aib]ARCLHQDLC-NH2; linker 1-7-13 via TBMB), the “Observable in rat plasma, for days” value was found to be 2 days.

Consider `CC(=O)N[C@H]1CSCc2cc3cc(c2)CSC[C@H](NC(=O)[C@H](CCCNC(=N)N)NC(=O)[C@H](C)NC(=O)[C@@H]2C[C@@H](O)CN2C(=O)[C@H](Cc2c[nH]c4ccccc24)NC(=O)[C@H](CO)NC1=O)C(=O)N[C@@H](CC(C)C)C(=O)N[C@@H](Cc1c[nH]cn1)C(=O)N[C@@H](CCC(N)=O)C(=O)N[C@@H](CC(=O)O)C(=O)N[C@@H](CC(C)C)C(=O)N[C@H](C(N)=O)CSC3` [Ac-(06-34-18) HyP3] (Ac-CSW[Hyp]ARCLHQDLC-NH2; linker 1-7-13 via TBMB), for which the “Observable in rat plasma, for days” value turned out to be 2 days.

In the case of `CC(=O)N[C@H]1CSCc2cc3cc(c2)CSC[C@H](NC(=O)[C@H](CCCNC(=N)N)NC(=O)[C@H](C)NC(=O)[C@@H]2Cc4ccccc4N2C(=O)[C@H](Cc2c[nH]c4ccccc24)NC(=O)[C@H](CO)NC1=O)C(=O)N[C@@H](CC(C)C)C(=O)N[C@@H](Cc1c[nH]cn1)C(=O)N[C@@H](CCC(N)=O)C(=O)N[C@@H](CC(=O)O)C(=O)N[C@@H](CC(C)C)C(=O)N[C@H](C(N)=O)CSC3` [Ac-(06-34-18) Ind3] (Ac-CSW[X2]ARCLHQDLC-NH2; linker 1-7-13 via TBMB), the “Observable in rat plasma, for days” value worked out at 2 days.

As to `CC(=O)N[C@H]1CSCc2cc3cc(c2)CSC[C@H](NC(=O)[C@H](CCCNC(=N)N)NC(=O)[C@H](C)NC(=O)[C@@H]2Cc4c([nH]c5ccccc45)CN2C(=O)[C@H](Cc2c[nH]c4ccccc24)NC(=O)[C@H](CO)NC1=O)C(=O)N[C@@H](CC(C)C)C(=O)N[C@@H](Cc1c[nH]cn1)C(=O)N[C@@H](CCC(N)=O)C(=O)N[C@@H](CC(=O)O)C(=O)N[C@@H](CC(C)C)C(=O)N[C@H](C(N)=O)CSC3` [Ac-(06-34-18) NorHar3] (Ac-CSW[Tpi]ARCLHQDLC-NH2; linker 1-7-13 via TBMB), the “Observable in rat plasma, for days” value was determined as 2 days.

`CC(=O)N[C@H]1CSCc2cc3cc(c2)CSC[C@H](NC(=O)[C@H](CCCNC(=N)N)NC(=O)[C@H](C)NC(=O)[C@@H]2CCCCN2C(=O)[C@H](Cc2c[nH]c4ccccc24)NC(=O)[C@H](CO)NC1=O)C(=O)N[C@@H](CC(C)C)C(=O)N[C@@H](Cc1c[nH]cn1)C(=O)N[C@@H](CCC(N)=O)C(=O)N[C@@H](CC(=O)O)C(=O)N[C@@H](CC(C)C)C(=O)N[C@H](C(N)=O)CSC3` [Ac-(06-34-18) Pip3] (Ac-CSW[Pip]ARCLHQDLC-NH2; linker 1-7-13 via TBMB): the “Observable in rat plasma, for days” value is 2 days.

As to `CC(=O)N[C@H]1CSCc2cc3cc(c2)CSC[C@H](NC(=O)[C@H](CCCNC(=N)N)NC(=O)[C@H](C)NC(=O)[C@@H]2Cc4ccccc4CN2C(=O)[C@H](Cc2c[nH]c4ccccc24)NC(=O)[C@H](CO)NC1=O)C(=O)N[C@@H](CC(C)C)C(=O)N[C@@H](Cc1c[nH]cn1)C(=O)N[C@@H](CCC(N)=O)C(=O)N[C@@H](CC(=O)O)C(=O)N[C@@H](CC(C)C)C(=O)N[C@H](C(N)=O)CSC3` [Ac-(06-34-18) Tic3] (Ac-CSW[Tic]ARCLHQDLC-NH2; linker 1-7-13 via TBMB), the “Observable in rat plasma, for days” value came to 2 days.

Still in this series, the particulars now being: Table 14; method #1.
As for `CC[C@@H]1NC(=O)[C@@H]2CCCN2C(=O)[C@H](Cc2c[nH]c3ccccc23)NC(=O)[C@H](CO)NC(=O)[C@@H](NC(C)=O)CSCc2cc3cc(c2)CSC[C@H](NC(=O)[C@H](CCCNC(=N)N)NC1=O)C(=O)N[C@@H](CC(C)C)C(=O)N[C@@H](Cc1c[nH]cn1)C(=O)N[C@@H](CCC(N)=O)C(=O)N[C@@H](CC(=O)O)C(=O)N[C@@H](CC(C)C)C(=O)N[C@H](C(N)=O)CSC3` [Ac-(06-34-18) Aba4] (Ac-CSWP[Abu]RCLHQDLC-NH2; linker 1-7-13 via TBMB), the “Observable in rat plasma, for days” value was 2 days.

As to `CC(=O)N[C@H]1CSCc2cc3cc(c2)CSC[C@H](NC(=O)[C@H](CCCNC(=N)N)NC(=O)C(C)(C)NC(=O)[C@@H]2CCCN2C(=O)[C@H](Cc2c[nH]c4ccccc24)NC(=O)[C@H](CO)NC1=O)C(=O)N[C@@H](CC(C)C)C(=O)N[C@@H](Cc1c[nH]cn1)C(=O)N[C@@H](CCC(N)=O)C(=O)N[C@@H](CC(=O)O)C(=O)N[C@@H](CC(C)C)C(=O)N[C@H](C(N)=O)CSC3` [Ac-(06-34-18) Aib4] (Ac-CSWP[Aib]RCLHQDLC-NH2; linker 1-7-13 via TBMB), the “Observable in rat plasma, for days” value is given as 7 days.

Turning to `CC(=O)N[C@H]1CSCc2cc3cc(c2)CSC(C)(C)[C@H](NC(=O)[C@H](CCCNC(=N)N)NC(=O)[C@H](C)NC(=O)[C@@H]2CCCN2C(=O)[C@H](Cc2c[nH]c4ccccc24)NC(=O)[C@H](CO)NC1=O)C(=O)N[C@@H](CC(C)C)C(=O)N[C@@H](Cc1c[nH]cn1)C(=O)N[C@@H](CCC(N)=O)C(=O)N[C@@H](CC(=O)O)C(=O)N[C@@H](CC(C)C)C(=O)N[C@H](C(N)=O)CSC3` [Ac-(06-34-18) Cys2ToPen2] (Ac-CSWPAR[Pen]LHQDLC-NH2; linker 1-7-13 via TBMB), the “Observable in rat plasma, for days” value was 5 days.

Consider `CC(=O)N[C@H]1CSCc2cc3cc(c2)CSC[C@H](NC(=O)[C@H](CCCNC(=N)N)NC(=O)CCNC(=O)[C@@H]2CCCN2C(=O)[C@H](Cc2c[nH]c4ccccc24)NC(=O)[C@H](CO)NC1=O)C(=O)N[C@@H](CC(C)C)C(=O)N[C@@H](Cc1c[nH]cn1)C(=O)N[C@@H](CCC(N)=O)C(=O)N[C@@H](CC(=O)O)C(=O)N[C@@H](CC(C)C)C(=O)N[C@H](C(N)=O)CSC3` [Ac-(06-34-18) β-Ala4] (Ac-CSWP[βAla]RCLHQDLC-NH2; linker 1-7-13 via TBMB), for which the “Observable in rat plasma, for days” value was determined as 10 days.

Still in this series, the particulars now being: Table 21; method #1.
With `CC(=O)N[C@H]1CSCc2cc3cc(c2)CSC[C@H](NC(=O)[C@H](CCCNC(=N)N)NC(=O)[C@H](CO)NC(=O)[C@@H]2CCCN2C(=O)[C@H](Cc2c[nH]c4ccccc24)NC(=O)[C@H](CO)NC1=O)C(=O)N[C@@H](CC(C)C)C(=O)N[C@@H](Cc1c[nH]cn1)C(=O)N[C@@H](CCC(N)=O)C(=O)N[C@@H](CC(=O)O)C(=O)N[C@@H](CC(C)C)C(=O)N[C@H](C(N)=O)CSC3` [Ac-(06-34-18) WPSR] (Ac-CSWPSRCLHQDLC-NH2; linker 1-7-13 via TBMB), the “Observable in rat plasma, for days” value turned out to be 2 days.

As for `CC(=O)N[C@H]1CSCc2cc3cc(c2)CSC[C@H](NC(=O)[C@H](CCCNC(=N)N)NC(=O)[C@H](Cc2ccc(O)cc2)NC(=O)[C@@H]2CCCN2C(=O)[C@H](Cc2c[nH]c4ccccc24)NC(=O)[C@H](CO)NC1=O)C(=O)N[C@@H](CC(C)C)C(=O)N[C@@H](Cc1c[nH]cn1)C(=O)N[C@@H](CCC(N)=O)C(=O)N[C@@H](CC(=O)O)C(=O)N[C@@H](CC(C)C)C(=O)N[C@H](C(N)=O)CSC3` [Ac-(06-34-18) WPYR] (Ac-CSWPYRCLHQDLC-NH2; linker 1-7-13 via TBMB), the “Observable in rat plasma, for days” value came out at 2 days.
